Test results: article PMC12029992, “Beyond-Rule-of-Five Compounds Are Not Different: In Vitro–In Vivo Extrapolation of Female CD-1 Mouse Clearance Based on Merck Healthcare KGaA Compound Set” (Pharmaceuticals, 2025)

How the values were obtained:
[1] = Determination of CLint in mouse microsomes (microsomal stability); format: in vitro ADME; details: female CD-1 mouse microsomes
Protocol: Microsomal stability was assessed on a liquid handling platform (Tecan Freedom EVO-2 200 MCA384, Männedorf, Switzerland) using pooled female CD-1 mouse microsomes. Compounds (1 µM final) were pre-incubated with microsomes (final 0.5 mg/mL) for 5 min at 37 °C in phosphate buffer (50 mM, pH 7.4), which was followed by the start of the incubation by the addition of cofactor NADPH (final 1.5 mM). […] Incubations were carried out in singlicate. Aliquots were taken at time points of 0, 5, 10, 20, and 30 min. Additionally, two control samples (0 and 30 min) lacking the addition of NADPH were included in order to flag compounds with non-microsomal metabolism. After incubation, the samples were quenched by adding sample aliquots from four different compound incubations to a two-fold volume of acetonitrile (ACN) for bioanalytical cocktailing designed to avoid analytical interference. After centrifugation, the supernatants were analyzed by a standard reversed-phase liquid chromatography assay coupled to tandem mass spectrometry (UHPLC-MS/MS) (for details, see the Supplementary Materials).
The data were subjected to post-acquisition analysis by the Analyst software (version 1.7.2), and the percentage of compound remaining (defined as the ratio of the peak area at a given time point and that at the 0 min time point) was plotted against the incubation time. The first-order elimination rate constant (kel) was derived by non-linear regression using Biorails version 5.10.22/Morphit version 8.0 (The Edge Software Consultancy, Guildford, UK), and CLint values (expressed in µL/min/mg) were obtained by normalizing kel with the microsome concentration.

[2] = Determination of CLint in mouse hepatocytes (hepatocyte stability); format: in vitro ADME; details: female CD-1 mouse hepatocytes
Protocol: Hepatocyte stability was assessed, as described previously, on a liquid handling platform (Hamilton Microlab Vantage, Bonaduz, Switzerland) using cryopreserved pooled female CD-1 mouse hepatocytes in suspension. Viability was determined in a Neubauer chamber by trypan blue staining and was always above 70%. Compounds (1 µM final) were incubated with hepatocytes at a cell density of 0.2 × 10^6 cells/mL in Krebs–Henseleit buffer (pH 7.4). […] Incubations were carried out in duplicate at 37 °C under an atmosphere of 5% CO2 and 95% humidity. Aliquots were taken at time points of 0, 10, 20, 40, 60, and 90 min and quenched with a two-fold volume of an ACN solution containing 1.5 µM of an internal standard. The supernatants were further diluted to a ratio of 1:3 (v/v) with supernatants from other compound incubations for bioanalytical cocktailing designed to avoid analytical interference. The samples were analyzed by UHPLC-MS/MS (for details, see the Supplementary Materials).
For quantitation with the Analyst software (version 1.7.2), MS peak area ratios of the compounds and an internal standard were calculated and transformed to nanomolar concentrations determined based on a four-point calibration comprising 1.2% to 150% of the incubation concentration. Calibration standards were prepared using heat-inactivated (60 °C for at least 15 min) hepatocytes as a biomatrix and processed in duplicate, as described for the test samples.
For data analysis, the concentration data were plotted against the incubation time, the first-order kel was determined by non-linear regression using Biorails version 5.10.22/Morphit version 8.0 (The Edge Software Consultancy, Guildford, UK), and CLint values (expressed in µL/min/10^6 cells) were obtained by normalizing kel with the hepatocyte concentration.

[3] = Unbound fraction in the microsome incubation (fu,mic) by rapid equilibrium dialysis; format: in vitro ADME, human; details: for fu,mic: experimental unbound fraction in microsome incubation
Protocol: The free fraction in mouse plasma, in the microsome incubation, and in the hepatocyte incubation was determined using rapid equilibrium dialysis (RED) in Teflon-coated 96-well RED devices. Test compounds were added as DMSO stocks to the donor matrix at 0.5 µM (final DMSO concentration of 0.5%) and dialyzed against phosphate buffer (70 mM, pH 7.4) in the receiver compartment for 4 h at 37 °C.
The donor matrices differed for the various unbound fractions. […] Mouse serum was dialyzed overnight to exchange the carbonate with a phosphate buffer and was then used as a donor matrix in the experiment (50% serum in 70 mM phosphate buffer, pH 7.4). For fu,mic, human liver microsomes were used as a surrogate for mouse microsomes as a donor matrix in the experiment (0.8 mg protein/mL in 70 mM phosphate buffer, pH 7.4). For fu,hep, mouse hepatocytes were inactivated by incubating overnight at room temperature and then used as a donor matrix in the experiment (0.2 million cells/mL in 70 mM phosphate buffer, pH 7.4).
Samples were taken from both compartments after 4 h of incubation and analyzed via UHPLC-MS/MS. The unbound fraction, fu, was calculated as follows: fu=creceiver/cdonor
The fu values were interconverted from one matrix concentration to another using the following formula: fu2=fu1/M2/M1−fu1·M2/M1−1 where fu2 at matrix concentration M2 can be calculated from the fu1 value at matrix concentration M1.
The recovery was calculated to check the mass balance after the experiment by adding the total compound levels in both the donor and receiver compartments.

female CD-1 mouse = assay: IVIVE of mouse clearance from hepatocytes (well-stirred model, regression correction); details: for Fold obs. / pred. (hep.) CL,b,u - Kilford / in vitro (hep.) pred. CLint,b - Kilford / in vitro (hep.) pred. CLint,b,u - Kilford: Kilford fu,hep
Source text: Compounds with phase II metabolism were removed from the microsome set (N = 25). […] The following regression equations were derived for microsomes and hepatocytes, respectively: log predicted CLint = 0.8 * log scaled CLint + 0.6 and log predicted CLint = 0.6 * log scaled CLint + 0.8, with CLint expressed in mL/min/kg.
According to Sohlenius-Sternbeck et al., the following equations were used for IVIVE: scaled CLint,b=in vitro CLint∗microsomes/hepatocytes/gram of liver∗liver weight/body weight∗fu,p/fu,inc∗Rb
The physiological scaling factors, taken from Simcyp^TM version 13/1 (Certara), were 48 mg of microsomal protein per gram of liver (MPPGL), 101.7 × 10^6 hepatocytes per gram of liver (HPGL), a liver weight of 1.46 g, and a body weight of 0.025 kg. For microsomes and hepatocytes, fu,mic and fu,hep, were used as the unbound fraction in the incubation (fu,inc), respectively. predicted CLint,b=10^(log scaled CLint∗slope+intercept)
For microsomes, a slope of 0.8 and an intercept of 0.6 were used, and for hepatocytes, a slope of 0.6 and an intercept of 0.8, according to the regression equations derived above. predicted CL,b=pred. CLint,b∗QH/pred. Clint,b+QH
CLp/Rb observed CLint,b=QH∗obs. CL,b/QH−obs. CL,b
All unbound clearance terms were calculated by dividing the respective clearance by fu,p. predicted/observed CL,b,u=pred./obs. CL,b/fu,p
The above-described approach was applied for the IVIVE of clearance of the data set analyzed in this study. Additionally, in order to evaluate the impact of the Kilford calculations as a surrogate for the experimentally determined free fraction in the in vitro systems, clearance was extrapolated using the Kilford equations [16] using the same regression coefficients.

[4] = hepatocytes, experimental fu,hep

Structure (SMILES) | Microsome CLint [1] [µL/min/mg] | Hepatocyte CLint [2] [µl/min/1e6 cells] | fu,mic [3] [%] | fu,mic recovery ([3]; recovery in fu,mic dialysis) [%] | Fold obs. / pred. (hep.) CL,b,u - Kilford (female CD-1 mouse; hepatocytes) | in vitro (hep.) pred. CLint,b - Kilford (female CD-1 mouse; hepatocytes) [mL/min/kg] | in vitro (hep.) pred. CLint,b,u - Kilford (female CD-1 mouse; hepatocytes) [mL/min/kg] | Fold obs. / pred. (hep.) CL,b,u - exp. fu,hep (female CD-1 mouse; [4]) | in vitro (hep.) pred. CLint,b - exp. fu,hep (female CD-1 mouse; [4]) [mL/min/kg] | in vitro (hep.) pred. CLint,b,u - exp. fu,hep (female CD-1 mouse; [4]) [mL/min/kg] | fu,mic recovery ([3]; recovery in equilibrium dialysis) [%] | in vitro (hep.) pred. CLint,b - Kilford (female CD-1 mouse; from hepatocytes) [mL/min/kg] | in vitro (hep.) pred. CLint,b,u - Kilford (female CD-1 mouse; from hepatocytes) [mL/min/kg] | in vitro (hep.) pred. CLint,b - exp. fu,hep (female CD-1 mouse; from hepatocytes, exp. fu,hep) [mL/min/kg] | in vitro (hep.) pred. CLint,b,u - exp. fu,hep (female CD-1 mouse; from hepatocytes, exp. fu,hep) [mL/min/kg] | Fold obs. / pred. (hep.) CL,b,u - exp. fu,hep (female CD-1 mouse; hepatocytes, exp. fu,hep)
O=C(O)c1cc(-c2ccc(F)cc2F)ccc1O [MSC001] | 17.8 | 11.9 | 91.70 | 98 | 0.3 | 9.82 | 576.00 | 0.3 | 9.94 | 582.73 |  |  |  |  |  | 
CNC(=O)c1cc(Oc2ccc3nc(N[C@@H]4CCCC[C@H]4O)sc3c2)ccn1 [MSC003] | 20.5 | 16.5 | 87.21 | 98 | 0.356 | 21.81 | 285.43 | 0.36 | 21.48 | 281.21 |  |  |  |  |  | 
N#Cc1c[nH]c2c(C(=O)N3CCN(CCc4ccc(F)cc4)CC3)cccc12 [MSC213] | 212.8 | 222.1 | 35.01 |  | 1.4 |  |  |  |  |  | 87 | 83.55 | 1799.14 | 89.51 | 1927.40 | 1.3
COc1cccc(OCCCN)c1-c1cc(Nc2cnc(C#N)cn2)n[nH]1 [MSC020] | 165.3 | 70.5 | 58.66 | 61 | 1.5 | 99.13 | 516.30 | 1.5 | 103.91 | 541.18 |  |  |  |  |  | 
